Reference: patent US20250339445A1, “Modulators of Orphan Nuclear Receptors for Treating Pancreatitis, Glioblastoma, Sarcopenia and Stroke” (Emory University, priority 2020, published 2025)

Key:
RORα = target: T1, RORα (Homo sapiens, UniProt P35398); assay: RORα activity by luciferase reporter (miR-122 promoter) in Huh-7 cells; assay type: cell-based; parameters: MIR122 promoter activity compared with SR1078: dose or concentration left out as unconfirmed; details: wild type and mutant RORA
T1 construct: endogenous in cells; host or cells: Huh-7 (Huh7) human hepatocellular carcinoma cells
T1 sequence (P35398 1-523): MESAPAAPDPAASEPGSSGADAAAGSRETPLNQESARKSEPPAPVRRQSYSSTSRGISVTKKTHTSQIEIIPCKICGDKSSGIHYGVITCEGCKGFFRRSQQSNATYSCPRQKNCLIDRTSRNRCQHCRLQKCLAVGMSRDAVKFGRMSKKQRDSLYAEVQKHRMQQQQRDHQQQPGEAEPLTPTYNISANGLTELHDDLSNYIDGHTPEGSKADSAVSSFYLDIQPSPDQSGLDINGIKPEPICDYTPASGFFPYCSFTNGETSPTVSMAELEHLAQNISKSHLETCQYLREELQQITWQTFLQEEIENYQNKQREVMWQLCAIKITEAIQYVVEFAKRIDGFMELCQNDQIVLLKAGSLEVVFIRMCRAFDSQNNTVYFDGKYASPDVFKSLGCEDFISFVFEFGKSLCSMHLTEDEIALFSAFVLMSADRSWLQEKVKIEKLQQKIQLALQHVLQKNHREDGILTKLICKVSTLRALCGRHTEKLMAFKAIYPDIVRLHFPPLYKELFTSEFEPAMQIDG
Method: Huh-7 cells were transfected with a luciferase reporter plasmid containing the miR-122 promoter (extends to −900 from the transcription start site) with intact wild-type (WT) RORα response element (RORE) or mutated RORE (mut). The cells were treated with Compound 1 one day (24 hours) post-transfection at the indicated concentrations. Luciferase expression was measured after 24 hours of treatment and normalized to Renilla Luciferase activity expressed from a co-transfected pRL plasmid. The pRL Vector, which provides constitutive expression of Renilla luciferase, was used in combination with a firefly luciferase vector to co-transfect cells. Expression of Renilla luciferase provides an internal control value to which expression of the experimental firefly luciferase reporter gene may be normalized.
Luciferase assay. For Luciferase assays, cells grown in 24 well plates were co-transfected with a luciferase reporter plasmid (50 ng) and 1 ng of Renilla Luciferase vector (PRL, Promega) using the TransIT-LT 1 (Mirus) transfection reagent (MIR 2300, Madison, WI). Firefly and Renilla luciferase activity was assessed using the Dual Luciferase Reporter Assay system (Promega). Readings were taken in triplicates on a Mithras LB 940 Luminometer (Berthold Technologies). […]
(§1) Following transfections, the cells were lysed with passive lysis buffer (Cat #E1941; Promega), shaking for 20 min at RT and transferred into appropriate 96-well plate. Firefly and Renilla luciferase activity was assessed using the Dual Luciferase Reporter Assay system (Cat #E1910; Promega) on a luminometer Mithras 2000 (Centro XZ, LB960, Berthold Technologies, Bad Wildbad, Germany). […] Readings were taken in triplicate.
as §1, with “room temperature (RT)” for “RT”, “into the” for “into”, “triplicates. […]” for “triplicate.”
After transfections, the cells were lysed with passive lysis buffer (catalog no. E1941, Promega), shaken for 20 minutes at room temperature, and transferred into the appropriate 96-well plate. Firefly and Renilla luciferase activity was assessed using the Dual Luciferase Reporter Assay system (catalog no. E1910, Promega) on a luminometer Mithras 2000 (Centro XZ, LB960; Berthold Technologies, Bad Wildbad, Germany). […] Readings were taken in triplicate.

[1] = test system: peripheral and the central benzodiazepine receptors; details: prediction later experimentally proven; cited from earlier work
FGF21 = FGF21 mRNA expression in 266-6 murine acinar cells (RT-qPCR); assay type: cell-based; details: 266-6 cells
Method: Using one of these models, RT-qPCR analysis of FFG21 mRNA expression was performed in 266-6 murine acinar cells after 6 hours treatment of DMSO/different doses of SR1078 (commercial ROR-α agonist). The statistical significance was calculated relative to DMSO and was determined by Student's t test (two-tailed). Values in graphs are mean±SD. *p<0.05, **p<0.01, ***p<0.001, ****p<0.0001.

MIR122 = assay: AntagoMIR122 treatment of chow or HFD fed mice; assay type: in vivo, C57BL/6 mice; details: for MIR122 levels in plasma, liver and white adipose tissue: hydrodynamic tail vein injection, 5 μg/mouse once a week
Method: C57BL/6 mice, 7 to 8 weeks old, were fed chow or 50% HFD, consisting of 50% Fat, 20% Sucrose, 10% Fructose, 1.25% Chol) (Envigo, TD.150235) for 4 weeks. In experiments of miR-122 repression by antagomiR, mice were hydrodynamic tail vain injected with antagomiR-122 or antagomiR-control (5 μg/mouse in 1.5 mL saline) once a week for 4 weeks and were still fed HFD or chow diet. After 4 weeks of injections mice were sacrificed and the livers, white adipose, and skeletal muscle tissues were frozen in liquid nitrogen or in optimum cutting temperature embedded frozen blocks, for further RNA and histologic analysis. AntagomiRs were obtained from Sigma-Aldrich (St Louis, MO); see Table 5.
C57BL/6 mice, 7 to 8 weeks old, were fed chow or 50% HFD, consisting of 50% Fat, 20% Sucrose, 10% Fructose, 1.25% Cholesterol) (Envigo, TD.150235) for 4 weeks. In experiments of MIR122 repression by antagomiR, mice were hydrodynamic tail vain injected with antagoMIR122 or antagomiR-control (5 μg/mouse in 1.5 mL saline) once a week for 3 weeks and were still fed HFD or chow diet. After 3 weeks of injections mice were sacrificed and the livers, gonadal white adipose, and skeletal muscle tissues were frozen in liquid nitrogen or in optimum cutting temperature embedded frozen blocks, for further RNA and histologic analysis. AntagomiRs were obtained from Sigma-Aldrich (St Louis, MO).

[2] = test system: high-fat-fed C57BL/6 mice; assay: High-fat-diet-fed C57BL/6 mice treated with Compound 1 and/or antagomiR-122; assay type: in vivo; details: 50% HFD; Compound 1 7.5 mg/kg i.p. twice a week, antagomiR once a week, 3 weeks
Method: C57BL/6 mice were fed a 50% high fat diet (HFD) for four weeks. The control cohort received three hydrodynamic tail vein injections of a 5 μg antagomiR-control and six i.p injections of saline over three weeks. A second cohort was hydrodynamic tail vein injected with 5 μg antagomiR-122 (the reverse complement that inhibits activity of miR-122) three times and i.p injections of saline six times over three weeks. A third cohort was injected i.p. with Compound 1 (7.5 mg/kg) twice a week plus antagomiR-control once a week over the course of 3 weeks. The final cohort was injected i.p. with Compound 1 (7.5 mg/kg) twice a week plus antagomiR-122 injections once a week over the course of 3 weeks.
Male C57BL/6J mice, 7 to 8 weeks old, were housed randomly in standard cages and were fed a HFD, or atherogenic diet (consisting 1% Chol and 0.5% cholic acid, see also Table 6). All mice had free access to water during the experimental period. During the feeding period body weight was monitored every 3 days. In the HFD experiment, after 4 or 6 weeks, the resultant obese mice were treated with antagomiR-122 (5 μg/mouse once a week for 3 weeks), or i.p. injected with Compound 1 (RORα agonist, 7.5 mg/kg twice a week for 3 weeks; or 15 mg/kg 3 times a week for 3 weeks). The obese control (HFD) group was administered only saline with DMSO and antagomiR-control. After 3 weeks of treatment mice were sacrificed and livers were taken for RNA-seq analysis. Livers, white adipose, and skeletal muscle tissues were frozen in liquid nitrogen or in optimum cutting temperature embedded frozen blocks, for further RNA and histologic analysis. In the atherogenic diet experiment mice were treated with 15 mg/kg Compound 1 after 3 weeks with the diet. After 3.5 weeks of treatment, mice were sacrificed, and the livers were frozen in liquid nitrogen or in optimum cutting temperature embedded frozen blocks. Plasma was collected from atherogenic diet-fed mice and saved in −20° C. for ALT and AST analysis using the Reflotron® Analyzer and test-strips (Roche).
In the HFD experiment, after 4 or 6 weeks, the resultant obese mice were treated with antagoMIR122 (5 μg/mouse once a week for 3 weeks), or i.p. injected with Compound 1 (RORα agonist, 7.5 mg/kg twice a week for 3 weeks; or 15 mg/kg 3 times a week for 3 weeks). The obese control (HFD) group was administered only saline with DMSO and antagomiR-control.
Mice were fed with a 50% HFD and after 4 weeks, when fatty liver was already established, they were treated with Compound 1, antagoMIR122 or both compounds together for an additional 3 weeks. […] The weighing of mice began at week 3, one week before treatments were initiated. […] The liver weight of the mice was in accordance with their body weight.

## O=C1Nc2cc(C(=O)N3CCC(Cc4ccccc4)CC3)ccc2Nc2ccccc21 [Compound 68]
RORα
  MIR122 promoter activity compared with SR1078: more potent than the commercial synthetic RORA agonist SR1078

## CC(C)=CCC/C(C)=C/CC/C(C)=C/CN1C(=O)c2cccc(O)c2Nc2c(O)cc(O)cc21 [Diazepinomicin]
[1]
  Predicted CNS activity (Gourdeau et al. 2008): predicted to be CNS inactive

## O=C(Nc1ccc(C(O)(C(F)(F)F)C(F)(F)F)cc1)c1ccc(C(F)(F)F)cc1 [SR1078]
FGF21; 6 hours treatment
  Fgf21 expression in acinar cells: increases Fgf21 expression
FGF21; 6 hours, effect decreasing at 20 and 40 μM
  Concentration of optimal effect on Fgf21 expression: 10 micromolar (μM)

## antagomiR-122: MIR122 antagonist; 2′-O Me-modified, phosphorothioate, cholesterol-linked reverse complement that inhibits activity of miR-122 (antisense ACAAACACCAUUGUCACACUCCA; all 2'-O-methyl, backbone not given here; phosphorothioate linkages and cholesterol conjugate, further chemistry not fully specified)
MIR122; HFD mice
  Mice weight: increased significantly
MIR122; HFD-fed mice
  Liver fat droplets, total TG liver content and muscle TG levels: increase
MIR122
  MIR122 levels in plasma, liver and white adipose tissue: significantly reduced
MIR122; listed as antagoMIR122
  MIR122 levels in plasma, liver and white adipose tissue: reduced significantly
[2]
  Body weight: highest increase in weight
